# Tested on: U87-stb-CXCR4 cells
# Assay: In vitro binding/uptake of 64Cu-labeled cyclotides to U87-stb-CXCR4 cells
# Type: cell-based, human
# Conditions: inhibitor at 10 μM
structure (smiles),measurement,value
c1cc(CN2CCCNCCNCCCNCC2)ccc1CN1CCCNCCNCCCNCC1 [AMD3100],Reduction in bound [^64Cu]MCo-CVX-6D in the presence of excess non-radioactive inhibitor,≈ 30%

# — paper PMC5812345 (Chemistry (Weinheim an der Bergstrasse, Germany), 2017)
